Reference: paper PMC10527105, “Chirality Matters: Fine-Tuning of Novel Monoamine Reuptake Inhibitors Selectivity through Manipulation of Stereochemistry” (Biomolecules, 2023)

Test system: Schaffer collateral (SC)-CA1 synapses
Assay: Ex vivo electrophysiology in hippocampal slices of aged rats
Set-up: species or system Sprague–Dawley rats
Procedure: Animals. Male Sprague–Dawley rats (22–23 months old) were bred and kept in the Core Unit of Biomedical Research, Division of Laboratory Animal Science and Genetics, Medical University of Vienna. Rats were housed in groups of two in standard Makrolon cages filled with autoclaved woodchips (temperature: 22 ± 2 °C; humidity: 55 ± 5%; 12 h artificial light/12 h dark cycle: light on at 7:00 am). Tap water and food were provided ad libitum. The study was carried out according to the guidelines of the ethics committee at the Medical University of Vienna and was approved by the Federal Ministry of Education, Science, and Culture, Austria (BMBWF-66.009/235/V/3b/2018).
Hippocampal Slices Preparation. Acutely dissected hippocampal slices obtained from rat singles administered with vehicle or 10 mg/kg for 7h (1 h prior to brain extraction) were prepared as previously described, with slight modifications. Briefly, rats were anesthetized by 50 s isoflurane inhalation exposure, and (upon the absence of corneal reflexes), animals were decapitated using a high-precision, hardened, sharp-blade rodent guillotine (DCAP-M, World Precision Instruments, Inc., Sarasota, FL, USA). […]
Extracellular recording. […] An AxoClamp-2B amplifier, Digidata-1440 interface (Axon Instruments, Molecular Devices, Berkshire, UK), and pClamp-11 software (Molecular Devices, Berkshire, UK) were used for data acquisition and analysis. fEPSPs were recorded at 0.033 Hz. […]
Hippocampal synaptic potentiation was induced by delivering 4 trains of 20 pulses at 100 Hz (200 μs/pulse) with a 500 ms inter-train interval, a variant of the different forms of HFS protocol known to induce both post-tetanic potentiation (PTP) and long-term potentiation (LTP) in hippocampal CA3-CA1 hippocampal synapses in young rodents. Synaptic plasticity was assessed by quantifying the time course of changes in fEPSP slope (decaying phase) after applying the plasticity-inducing protocol, normalized to the average of all fEPSP slopes recorded during the preceding baseline recording period. […]

[O-][S@+](Cc1cccs1)[C@H](c1ccccc1)c1cccc(Br)c1 [Compound 8h, (R,R)-2-((((3-bromophenyl)(phenyl)methyl)sulfinyl)methyl)thiophene]
basal synaptic transmission: fEPSP slopes (I/O curves) vs vehicle (acute 10 mg/kg, aged rats (22–23 months), hippocampal slices): significantly enhanced | long-term potentiation (LTP) after HFS vs vehicle (acute treatment, aged rats, for at least 40 min after HFS): significantly increased and maintained LTP | early post-tetanic potentiation (PTP) responses vs vehicle (acute treatment, aged rats, right after HFS, Sidak post hoc p < 0.0001): statistically significant (p < 0.0001) enhancement
